Results: patent publication US8658661B2, “Oxadiazole inhibitors of leukotriene production” (Boehringer Ingelheim International GmbH, priority 2010, dated 2014)
Read-outs that look alike come from different tables or passages of the source.

How the values were obtained:
[1] = biological target: T1, recombinant human FLAP protein (Homo sapiens, UniProt P20292); test: FLAP binding assay (SPA, displacement of [125I]L-691,831)
T1 construct: made in house; host or cells: Sf9 insect cells (100,000×g membrane pellet used)
T1 sequence (P20292 1-161): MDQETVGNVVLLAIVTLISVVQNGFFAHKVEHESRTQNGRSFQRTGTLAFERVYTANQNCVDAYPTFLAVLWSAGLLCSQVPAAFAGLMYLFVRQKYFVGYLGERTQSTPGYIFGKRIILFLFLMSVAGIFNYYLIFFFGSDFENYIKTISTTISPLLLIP
Summary of the method: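 Membranes from sf9 cells expressing human FLAP in pH 7.5 Tris buffer (MgCl2, EDTA, PMSF). Non-specific binding defined with 10 μM cold L-691,831.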

[2] = tested on: synthesis of LTB4 in human whole blood; test: Human whole blood assay (inhibition of LTB4 synthesis, calcimycin stimulated); type: cell-based; conditions: heparinized human whole blood, calcimycin 20 μM, plasma LTB4
Summary of the method: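 LTB4 levels in plasma were measured by antibody-based HTRF after heparinized human whole blood, pretreated with compound (15 min, 37° C), was challenged with 20 μM calcimycin for 30 min at 37° C.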

[3] = membranes of sf9 cells expressing recombinant human FLAP, [125I]L-691,831 probe, read-out: FLAP binding IC50

| Structure (SMILES) | IC50 [1, 3] [µM] | IC50 [2] [µM] | IC50 [1] [µM] |
| --- | --- | --- | --- |
| CC(C)C(C)(c1ccc(-c2cnc(N)nc2)cc1)c1noc(-c2cnco2)n1 (centres unmarked) [Example 132, 5-(4-{3-methyl-2-[5-(1,3-oxazol-5-yl)-1,2,4-oxadiazol-3-yl]butan-2-yl}phenyl)pyrimidin-2-amine] | 0.0028 | 0.33 | – |
| CN(C)C(=O)Cn1cc(-c2nc([C@@](C)(c3ccc(-c4cnc5c(c4)CCN5)cc3)C3CC3)no2)cn1 [Example 284, 2-[4-(3-{(R)-1-Cyclopropyl-1-[4-(2,3-dihydro-1H-pyrrolo[2,3-b]pyridin-5-yl)-phenyl]-ethyl}-[1,2,4]oxadiazol-5-yl)-pyrazol-1-yl]-N,N-dimethyl-acetamide] | 0.0047 | 0.2 | – |
| CC(C)(c1ccc(-c2cnc(N)nc2)cc1)c1noc(-c2cn[nH]c2)n1 [Example 69, 5-(4-{2-[5-(1H-pyrazol-4-yl)-1,2,4-oxadiazol-3-yl]propan-2-yl}phenyl)pyrimidin-2-amine] | 0.0077 | 0.12 | – |
| CC(C)C(C)(c1ccc(-c2cnc(N)nc2)cc1)c1noc(-c2ccc(=O)[nH]c2)n1 (centres unmarked) [Example 9, 5-(3-{2-[4-(2-aminopyrimidin-5-yl)phenyl]-3-methylbutan-2-yl}-1,2,4-oxadiazol-5-yl)pyridin-2(1H)-one] | 0.0029 | 0.21 | – |
| C[C@@](c1ccc(-c2cnc(N)nc2)cc1)(c1noc(-c2cnn(C3COC3)c2)n1)C1CC1 [Example 54, 5-{4-[(1R)-1-cyclopropyl-1-{5-[1-(oxetan-3-yl)-1H-pyrazol-4-yl]-1,2,4-oxadiazol-3-yl}ethyl]phenyl}pyrimidin-2-amine] | 0.0026 | 0.027 | – |
| COCCNc1cnc(-c2nc(C(C)(c3ccc(-c4cnc(N)nc4)cc3)C3CCC3)no2)cn1 (centres unmarked) [Example 36, 5-{4-[1-cyclobutyl-1-(5-{5-[(2-methoxyethyl)amino]pyrazin-2-yl}-1,2,4-oxadiazol-3-yl)ethyl]phenyl}pyrimidin-2-amine] | 0.0032 | 0.17 | – |
| CN(C)C(=O)Cn1cc(-c2nc(C(C)(c3ccc(-c4ccc(N)nc4F)cc3)C3CC3)no2)cn1 (centres unmarked) [Example 278, 2-[4-(3-{1-[4-(6-Amino-2-fluoro-pyridin-3-yl)-phenyl]-1-cyclopropyl-ethyl}-[1,2,4]oxadiazol-5-yl)-pyrazol-1-yl]-N,N-dimethyl-acetamide] | 0.005 | 0.15 | – |
| CN(C)C(=O)Cn1cc(-c2nc(C(C)(c3ccc(-c4cnc(N)nc4)cc3)C3CCC3)no2)cn1 (centres unmarked) [Example 97, 2-[4-(3-{1-[4-(2-aminopyrimidin-5-yl)phenyl]-1-cyclobutylethyl}-1,2,4-oxadiazol-5-yl)-1H-pyrazol-1-yl]-N,N-dimethylacetamide] | 0.0088 | 0.17 | – |
| Cc1ccc(-c2nc(C(C)(c3ccc(-c4cnc(N)nc4)cc3)C(C)C)no2)cn1 (centres unmarked) [Example 4, 5-(4-{3-methyl-2-[5-(6-methylpyridin-3-yl)-1,2,4-oxadiazol-3-yl]butan-2-yl}phenyl)pyrimidin-2-amine] | 0.0016 | 0.31 | – |
| CC(C)C(C)(c1ccc(-c2cnc(N)nc2)cc1)c1noc(N2CCC(N)CC2)n1 (centres unmarked) [Example 222, 5-(4-{1-[5-(4-Amino-piperidin-1-yl)-[1,2,4]oxadiazol-3-yl]-1,2-dimethyl-propyl}-phenyl)-pyrimidin-2-ylamine] | 0.13 | 1.7 | – |
| COCCn1cc(-c2nc([C@@](C)(c3ccc(-c4cnc(N)c(C)n4)cc3)C3CC3)no2)cn1 [Example 189, 5-[4-((R)-1-Cyclopropyl-1-{5-[1-(2-methoxy-ethyl)-1H-pyrazol-4-yl]-[1,2,4]oxadiazol-3-yl}-ethyl)-phenyl]-3-methyl-pyrazin-2-ylamine] | 0.013 | 0.049 | – |
| CC(C)(O)CNc1cnc(-c2nc(C(C)(C)c3ccc(-c4cnc(N)nc4)cc3)no2)cn1 [Example 73, 1-{[5-(3-{2-[4-(2-aminopyrimidin-5-yl)phenyl]propan-2-yl}-1,2,4-oxadiazol-5-yl)pyrazin-2-yl]amino}-2-methylpropan-2-ol] | 0.028 | 0.99 | – |
| CN(C)C(=O)Cn1cc(-c2nc([C@@](C)(c3ccc(-c4cnc(N)nc4)cc3)C3CC3)no2)cn1 (single isomer, unassigned) [Example 115] | 0.0019 | 0.058 | – |
| C[C@](c1ccc(-c2cnc(N)nc2)cc1)(c1noc(-c2cnc(N3CCNCC3)cn2)n1)C1CC1 [Example 267, 5-(4-{(S)-1-Cyclopropyl-[5-(3,4,5,6-tetrahydro-2H-[1,2′]bipyrazinyl-5′-yl)-[1,2,4]oxadiazol-3-yl]-ethyl}-phenyl)-pyrimidin-2-ylamine] | 0.012 | 0.39 | – |
| CC(C)C(C)(c1ccc(-c2cnc(N)nc2)cc1)c1noc(-c2ccc(C#N)nc2)n1 (centres unmarked) [Example 128, 5-(3-{2-[4-(2-aminopyrimidin-5-yl)phenyl]-3-methylbutan-2-yl}-1,2,4-oxadiazol-5-yl)pyridine-2-carbonitrile] | 0.0016 | 0.24 | – |
| CN(C)C(=O)Cn1cc(-c2nc(C(C)(c3ccc(-c4cnc5c(c4)CCN5)cc3)C3CC3)no2)cn1 (centres unmarked) [Example 241, 2-[4-(3-{1-Cyclopropyl-1-[4-(2,3-dihydro-1H-pyrrolo[2,3-b]pyridin-5-yl)-phenyl]-ethyl}-[1,2,4]oxadiazol-5-yl)-pyrazol-1-yl]-N,N-dimethyl-acetamide] | 0.0034 | 0.17 | – |
| C[C@@](c1ccc(-c2cnc(N)nc2)cc1)(c1noc(-c2cnn(CCN3CCCC3)c2)n1)C1CC1 [Example 215, 5-[4-((R)-1-Cyclopropyl-1-{5-[1-(2-pyrrolidin-1-yl-ethyl)-1H-pyrazol-4-yl]-[1,2,4]oxadiazol-3-yl}-ethyl)-phenyl]-pyrimidin-2-ylamine] | 0.0036 | 0.028 | – |
| C[C@@](c1ccc(-c2ccc(N)nc2)cc1)(c1noc(-c2cnc(N3CCNCC3)cn2)n1)C1CC1 [Example 210, 5-(4-{(R)-1-Cyclopropyl-1-[5-(3,4,5,6-tetrahydro-2H-[1,2′]bipyrazinyl-5′-yl)-[1,2,4]oxadiazol-3-yl]-ethyl}-phenyl)-pyridin-2-ylamine] | 0.0044 | 0.19 | – |
| CC(C)C(C)(c1ccc(-c2cnc(N)nc2)cc1)c1noc(N2CC(C)(O)C2)n1 (centres unmarked) [Example 203, 1-(3-{1-[4-(2-Amino-pyrimidin-5-yl)-phenyl]-1,2-dimethyl-propyl}-[1,2,4]oxadiazol-5-yl)-3-methyl-azetidin-3-ol] | 0.015 | 0.13 | – |
| CN(C)C(=O)Cn1cc(-c2nc(C(C)(c3ccc(-c4cnc(N)nc4)cc3)C3CC3)no2)cn1 (centres unmarked) [Example 59, 2-[4-(3-{1-[4-(2-aminopyrimidin-5-yl)phenyl]-1-cyclopropylethyl}-1,2,4-oxadiazol-5-yl)-1H-pyrazol-1-yl]-N,N-dimethylacetamide] | 0.0011 | 0.076 | – |
| CC(C)C(C)(c1ccc(-c2cnc(N)nc2)cc1)c1noc(NC2CCC(O)CC2)n1 (centres unmarked) [Example 237, 4-(3-{1-[4-(2-Amino-pyrimidin-5-yl)-phenyl]-1,2-dimethyl-propyl}-[1,2,4]oxadiazol-5-ylamino)-cyclohexanol] | 0.026 | 0.47 | – |
| CC(C)C(C)(c1ccc(-c2cnc(N)nc2)cc1)c1noc(N2CCC(CCO)CC2)n1 (centres unmarked) [Example 212, 2-[1-(3-{1-[4-(2-Amino-pyrimidin-5-yl)-phenyl]-1,2-dimethyl-propyl}-[1,2,4]oxadiazol-5-yl)-piperidin-4-yl]-ethanol] | 0.012 | 0.086 | – |
| C[C@](c1ccc(-c2ccc(N)nc2)cc1)(c1noc(N2CCC(O)CC2)n1)C1CC1 [Example 283, 1-(3-{(S)-1-[4-(6-Amino-pyridin-3-yl)-phenyl]-1-cyclopropyl-ethyl}-[1,2,4]oxadiazol-5-yl)-piperidin-4-ol] | 0.016 | 0.92 | – |
| CC(C)C(C)(c1ccc(-c2cnc(N)nc2)cc1)c1noc(NCC2CCOCC2)n1 (centres unmarked) [Example 201, 5-[4-(1,2-Dimethyl-1-{5-[(tetrahydro-pyran-4-ylmethyl)-amino]-[1,2,4]oxadiazol-3-yl}-propyl)-phenyl]-pyrimidin-2-ylamine] | 0.013 | 0.2 | – |
| CC1(O)CCN(c2nc(C(C)(c3ccc(-c4cnc(N)nc4)cc3)C3CC3)no2)CC1 (centres unmarked) [Example 238, 1-(3-{1-[4-(2-Amino-pyrimidin-5-yl)-phenyl]-1-cyclopropyl-ethyl}-[1,2,4]oxadiazol-5-yl)-4-methyl-piperidin-4-ol] | 0.005 | 0.029 | – |
| C[C@@](c1ccc(-c2cnc(N)cn2)cc1)(c1noc(-c2cnc(N3CCNCC3)cn2)n1)C1CC1 [Example 195, 5-(4-{(R)-1-Cyclopropyl-1-[5-(3,4,5,6-tetrahydro-2H-[1,2′]bipyrazinyl-5′-yl)-[1,2,4]oxadiazol-3-yl]-ethyl}-phenyl)-pyrazin-2-ylamine] | 0.0046 | 0.28 | – |
| CN(C)C(=O)Cn1cc(-c2nc(C(C)(c3ccc(-c4cnc5[nH]ccc5n4)cc3)C3CC3)no2)cn1 (centres unmarked) [Example 247, 2-[4-(3-{1-Cyclopropyl-1-[4-(5H-pyrrolo[2,3-b]pyrazin-2-yl)-phenyl]-ethyl}-[1,2,4]oxadiazol-5-yl)-pyrazol-1-yl]-N,N-dimethyl-acetamide] | 0.0059 | 0.3 | – |
| CC(C)[C@@](C)(c1ccc(-c2cnc(N)nc2)cc1)c1noc(-c2cnn(C)c2)n1 (single isomer, unassigned) [Example 47] | – | 0.36 | 0.0077 |
